Reference: the supplement of paper PMC10307832

What was measured:
Assay in all cases: relative viability (nuclei count vs DMSO), 5 days (fraction); higher = more cells survive
[1] = compound: C/C(=N\NC(=S)N1CCC1)/C2=CC=CC=N2 + COc1cc2c(Oc3ccc(NC(=O)C4(C(=O)Nc5ccc(F)cc5)CC4)cc3F)ccnc2cc1OCCCN1CCOCC1 [Foretinib] (partner 0.25 µM)
In short: (§1)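 One day after seeding in 1536-well plates, lung cancer cell lines were dosed by pin tool. Dosing was either single-drug or a fixed anchor-drug dose plus five library-drug doses (not always all listed) in √10 steps. After 5 days, nuclei were stained in one fix-and-stain step and counted on 4× images, and relative viability is the nuclei count of treated wells over that of vehicle wells, given as the median of duplicate plates.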

[2] = compound: C/C(=N\NC(=S)N1CCC1)/C2=CC=CC=N2 + Cc1cc(Nc2cc(N3CCN(C)CC3)nc(Sc3ccc(NC(=O)C4CC4)cc3)n2)n[nH]1 [Tozasertib] (partner 0.1 µM)
In short: as §1

[3] = compound: C/C(=N\NC(=S)N1CCC1)/C2=CC=CC=N2 + CCNC(=O)c1noc(-c2cc(C(C)C)c(O)cc2O)c1-c1ccc(CN2CCOCC2)cc1 [Luminespib] (partner 0.01 µM)
In short: as §1

[4] = compound: C/C(=N\NC(=S)N1CCC1)/C2=CC=CC=N2 + NC(=O)Nc1cc(-c2cccc(F)c2)sc1C(=O)N[C@H]1CCCNC1 [AZD7762] (partner 0.2 µM)
In short: as §1

Cell Line | relative viability ([1]; first compound 0.05 µM) | relative viability ([1]; first compound 0.1581 µM) | relative viability ([1]; first compound 0.5 µM) | relative viability ([1]; first compound 1.581 µM) | relative viability ([1]; first compound 5 µM) | relative viability ([2]; first compound 0.05 µM) | relative viability ([2]; first compound 0.1581 µM) | relative viability ([2]; first compound 0.5 µM) | relative viability ([2]; first compound 1.581 µM) | relative viability ([2]; first compound 5 µM) | relative viability ([3]; first compound 0.05 µM) | relative viability ([3]; first compound 0.1581 µM) | relative viability ([3]; first compound 0.5 µM) | relative viability ([3]; first compound 1.581 µM) | relative viability ([3]; first compound 5 µM) | relative viability ([4]; first compound 0.05 µM) | relative viability ([4]; first compound 0.1581 µM) | relative viability ([4]; first compound 0.5 µM) | relative viability ([4]; first compound 1.581 µM) | relative viability ([4]; first compound 5 µM)
201T | 0.213 | 0.209 | 0.19 | 0.181 | 0.177 | 0.424 | 0.445 | 0.368 | 0.292 | 0.296 | 0.394 | 0.394 | 0.35 | 0.322 | 0.256 | 0.287 | 0.285 | 0.273 | 0.211 | 0.233
A-427 | 0.146 | 0.185 | 0.172 | 0.122 | 0.124 | 0.1 | 0.0846 | 0.12 | 0.077 | 0.102 | 0.153 | 0.147 | 0.139 | 0.155 | 0.155 | 0.188 | 0.173 | 0.159 | 0.156 | 0.178
ABC-1 | 0.13 | 0.243 | 0.197 | 0.207 | 0.208 | 0.193 | 0.146 | 0.152 | 0.168 | 0.163 | 0.224 | 0.264 | 0.291 | 0.145 | 0.316 | 0.282 | 0.342 | 0.341 | 0.288 | 0.305
BEN | 0.17 | 0.204 | 0.175 | 0.171 | 0.205 | 0.334 | 0.354 | 0.336 | 0.352 | 0.397 | 0.113 | 0.19 | 0.0969 | 0.12 | 0.0243 | 0.265 | 0.339 | 0.288 | 0.238 | 0.279
CAL-12T | 0.184 | 0.21 | 0.146 | 0.161 | 0.138 | 0.128 | 0.12 | 0.131 | 0.107 | 0.113 | 0.138 | 0.147 | 0.0989 | 0.105 | 0.112 | 0.284 | 0.226 | 0.281 | 0.206 | 0.159
ChaGo-K-1 | 0.217 | 0.24 | 0.211 | 0.176 | 0.171 | 0.141 | 0.154 | 0.17 | 0.151 | 0.168 | 0.167 | 0.172 | 0.174 | 0.139 | 0.161 | 0.177 | 0.175 | 0.154 | 0.154 | 0.154
EKVX | 0.0957 | 0.192 | 0.118 | 0.104 | 0.984 | 0.131 | 0.108 | 0.101 | 0.103 | 0.12 | 0.0986 | 0.123 | 0.114 | 0.119 | 0.143 | 0.106 | 0.115 | 0.128 | 0.14 | 0.143
EMC-BAC-2 | 0.209 | 0.261 | 0.246 | 0.183 | 0.237 | 0.176 | 0.187 | 0.147 | 0.151 | 0.167 | 0.217 | 0.225 | 0.177 | 0.19 | 0.232 | 0.252 | 0.259 | 0.241 | 0.176 | 0.216
EPLC-272H | 0.0785 | 0.069 | 0.1 | 0.0473 | 0.0779 | 0.0738 | 0.0936 | 0.118 | 0.0848 | 0.114 | 0.105 | 0.105 | 0.192 | 0.203 | 0.165 | 0.106 | 0.104 | 0.106 | 0.0639 | 0.114
H3255 | 0.241 | 0.245 | 0.241 | 0.242 | 0.29 | 0.331 | 0.167 | 0.288 | 0.193 | 0.232 | 0.21 | 0.262 | 0.232 | 0.176 | 0.302 | 0.302 | 0.308 | 0.286 | 0.244 | 0.237
HARA | 0.207 | 0.307 | 0.09 | 0.0777 | 0.0635 | 0.0547 | 0.0677 | 0.0627 | 0.0539 | 0.0645 | 0.124 | 0.121 | 0.0663 | 0.0648 | 0.0838 | 0.129 | 0.199 | 0.144 | 0.104 | 0.124
HCC-15 | 0.131 | 0.0633 | 0.115 | 0.0865 | 0.0901 | 0.0765 | 0.0513 | 0.112 | 0.0654 | 0.0641 | 0.128 | 0.0546 | 0.119 | 0.0758 | 0.072 | 0.084 | 0.084 | 0.105 | 0.113 | 0.103
HCC-827 | 0.538 | 0.583 | 0.239 | 0.223 | 0.17 | 0.383 | 0.36 | 0.225 | 0.185 | 0.148 | 0.254 | 0.468 | 0.163 | 0.124 | 0.188 | 0.14 | 0.176 | 0.104 | 0.106 | 0.172
HOP-62 | 0.21 | 0.243 | 0.114 | 0.116 | 0.112 | 0.129 | 0.109 | 0.0803 | 0.104 | 0.0835 | 0.215 | 0.12 | 0.151 | 0.129 | 0.119 | 0.0756 | 0.0789 | 0.0592 | 0.0773 | 0.111
NCI-H522 | – | – | – | – | – | – | 0.292 | 0.296 | – | 0.407 | 0.353 | 0.375 | 0.369 | 0.412 | 0.49 | 0.307 | 0.279 | 0.24 | 0.292 | 0.397
